Measured values published in PMC2715367 (Journal of medicinal chemistry, 2009).
pEC50: −log10 of the molar value. Marks after values point to notes of the source that are not given here. One block for each molecule: values may come before it.

Key:
[1] = system: T. cruzi PFT enzyme; conditions: cited from earlier work
[2] = cited from earlier work
[3] = system: T. cruzi trypomastigotes (Tulahuen strain); assay: Efficacy studies in T. cruzi infected mice; assay type: in vivo; conditions: for Weight loss in mice: 100 mg/kg twice per day, days 8−13; for Survival of infected mice: oral gavage for 20 days from day 8 post-infection
[4] = system: mammalian cytochrome P450 enzymes; conditions: cited from earlier work
[5] = Pharmacokinetic studies in mice; conditions: female, BALB/c, mouse, po, 50 mg/kg
[6] = biological target: T1, human 14DM (Homo sapiens, UniProt Q16850); assay: Inhibition of human 14DM; assay type: biochemical; conditions: same conditions as Tc14DM assay
T1 sequence (Q16850 1-509): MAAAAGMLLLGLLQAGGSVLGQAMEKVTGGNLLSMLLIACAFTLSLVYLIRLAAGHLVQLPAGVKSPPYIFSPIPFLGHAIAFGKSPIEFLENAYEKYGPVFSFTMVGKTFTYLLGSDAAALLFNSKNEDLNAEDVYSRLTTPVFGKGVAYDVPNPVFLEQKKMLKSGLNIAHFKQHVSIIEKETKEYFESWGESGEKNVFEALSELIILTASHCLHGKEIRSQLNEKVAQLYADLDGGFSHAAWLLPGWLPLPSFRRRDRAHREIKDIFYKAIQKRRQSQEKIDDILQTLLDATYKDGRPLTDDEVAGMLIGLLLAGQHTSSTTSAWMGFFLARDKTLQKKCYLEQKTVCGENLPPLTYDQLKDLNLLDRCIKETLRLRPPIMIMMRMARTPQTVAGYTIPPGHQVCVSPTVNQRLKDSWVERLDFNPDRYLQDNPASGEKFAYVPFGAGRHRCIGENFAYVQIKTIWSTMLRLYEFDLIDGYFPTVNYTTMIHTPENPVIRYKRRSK

[7] = system: T. cruzi amastigotes; assay: T. cruzi growth inhibition assay; assay type: cell-based; conditions: Trypanosoma cruzi, read-out: T. cruzi amastigote EC50
[8] = oral; cited from earlier work
[9] = biological target: rat PFT (Rattus norvegicus, UniProt Q02293+Q04631); assay: Rat PFT scintillation proximity assay; assay type: biochemical; conditions: for Fold increase in PFT IC50 (decrease in PFT inhibition) compared to tipifarnib: rat PFT
[10] = biological target: recombinant human CYP3A4 enzyme (Homo sapiens, UniProt P08684); assay: CYP3A4 inhibition assay; assay type: in vitro ADME; conditions: in vitro
Sequence of recombinant human CYP3A4 enzyme (P08684 whole entry): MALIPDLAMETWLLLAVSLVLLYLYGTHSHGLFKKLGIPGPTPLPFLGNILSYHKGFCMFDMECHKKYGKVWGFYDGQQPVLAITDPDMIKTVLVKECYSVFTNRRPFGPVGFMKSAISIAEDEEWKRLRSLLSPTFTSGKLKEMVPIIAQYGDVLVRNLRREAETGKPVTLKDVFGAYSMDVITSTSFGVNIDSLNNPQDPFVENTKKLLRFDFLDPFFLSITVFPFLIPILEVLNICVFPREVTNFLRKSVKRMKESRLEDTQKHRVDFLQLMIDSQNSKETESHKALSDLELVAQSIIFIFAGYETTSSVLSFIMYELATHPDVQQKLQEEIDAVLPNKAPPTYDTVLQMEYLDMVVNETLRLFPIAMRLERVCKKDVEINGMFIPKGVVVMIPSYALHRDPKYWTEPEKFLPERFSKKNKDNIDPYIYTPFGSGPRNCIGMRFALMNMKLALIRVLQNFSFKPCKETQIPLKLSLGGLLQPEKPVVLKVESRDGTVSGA

SMILES: Cn1cncc1[C@@](N)(c1ccc(Cl)cc1)c1ccc2c(c1)c(-c1cccc(Cl)c1)cc(=O)n2C [Tipifarnib, tipifarnib]
Activity against isolated T. cruzi PFT enzyme [1]: weak activity | Dose limiting toxicities in humans [2]: bone marrow suppression | Weight loss in mice [3]: some weight loss was observed | Survival of infected mice [3]: did not protect the mice from death | Delay in development of high parasitemia ([3]; oral gavage twice daily from day 8 post-infection): 3−4 days | Inhibitory activity against mammalian cytochrome P450 enzymes [4]: very little inhibitory activity | Cmax ([5]; in vivo): 5 to 7 µM | half-life ([5]; in vivo): ~4 h | Inhibition of human 14DM [6]: do not inhibit | pEC50 [7]: 8.22 | Terminal half-life [8]: 16 h

SMILES: COC(c1ccc(Cl)cc1)(c1ccc2c(c1)c(-c1cccc(Cl)c1C)cc(=O)n2C)c1cncn1C (racemic) [Compound 2g, 4-(3-Chloro-2-methylphenyl)-6-((4-chlorophenyl)(methoxy)(1-methyl-1H-imidazol-5-yl)methyl)-1-methylquinolin-2(1H)-one]
Weight loss in mice [3]: some weight loss was observed | Survival of infected mice [3]: One mouse in the 2g group died after the end of treatment | Inhibition of CYP3A4 (in words) [10]: weak inhibition | Cmax ([5]; plasma): 5 to 7 µM | Ratio IC50/EC50 ([9]; PFT IC50 / T. cruzi amastigote EC50): >7700 ^* | inhibition at 5 µM ([9]; read-out: PFT inhibition at highest concentration evaluated): < 50% | Inhibition of human 14DM [6]: do not inhibit

SMILES: O=C(Cn1ccnc1[N+](=O)[O-])NCc1ccccc1 [Benznidazole, benznidazole]
Mice with positive parasite blood cultures ([3]; surviving mice sacrificed at day 103 post-infection): 3 of 6

Now from value to molecule:

Fold increase in PFT IC50 (decrease in PFT inhibition) compared to tipifarnib [9]: 19 fold
SMILES: Cc1cc([C@@](N)(c2ccc3c(c2)c(-c2cccc(Cl)c2)cc(=O)n3C)c2cncn2C)ccc1Cl (racemic) [Compound 2a]

Inhibition of human 14DM [6]: do not inhibit
SMILES: Cc1c(Cl)cccc1-c1cc(=O)n(C)c2ccc([C@](N)(c3ccc(Cl)cc3)c3cncn3C)cc12 (racemic) [Compound 2c]

Fold increase in PFT IC50 (decrease in PFT inhibition) compared to tipifarnib [9]: about 430 fold
SMILES: Cc1ccccc1-c1cc(=O)n(C)c2ccc([C@](N)(c3ccc(Cl)cc3)c3cncn3C)cc12 (racemic) [Compound 2d]

Inhibition of human 14DM [6]: do not inhibit
SMILES: Cn1cncc1[C@@](N)(c1ccc(Cl)cc1)c1ccc2c(c1)c(-c1cccc3ccccc13)cc(=O)n2C (racemic) [Compound 2f]
